Assay results: ChEMBL document CHEMBL1201862, “PubChem BioAssay data set” (2004)
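Briefly, cells in 96-well plates were exposed to five compound concentrations for 48 h, and endpoints were estimated by linear interpolation. Abbreviation: GI50, concentration required for 50% inhibition of growth.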 Calls of active or inactive are those of the source. No stated cut-off is given here; in the data, active = GI50 up to about 1.1 µM and inactive = higher.

What was measured:
Assay in all cases: DTP human tumour cell line panel, 48 h
[1] = test system: SK-MEL-2
[2] = test system: M14
[3] = test system: UACC-62
[4] = test system: KM12
[5] = test system: UO-31
[6] = test system: CAKI-1
[7] = test system: SW-620
[8] = test system: CCRF-CEM
[9] = test system: SK-OV-3
[10] = test system: SF-295
[11] = test system: SNB-78
[12] = test system: RXF 393
[13] = test system: SK-MEL-5
[14] = test system: SN12C
[15] = test system: DMS-114

Measured: GI50

CC(=O)Nc1c(C)ccc2c1C(=O)c1ccccc1C2=O
inactive: [1] > 100 µM | [2] > 100 µM | [3] > 100 µM | [4] > 100 µM | [5] 77.1 µM | [6] 56.5 µM | [7] > 100 µM | [8] 80.4 µM | [9] > 100 µM | [10] > 100 µM | [11] > 100 µM | [12] > 100 µM | [13] > 100 µM | [14] > 100 µM | [15] 35.2 µM

O=C(CCc1nnc2s/c(=C\c3ccc4c(c3)OCO4)c(=O)n12)Nc1cc(Cl)ccc1Cl
inactive: [1] > 100 µM | [2] > 100 µM | [3] > 100 µM | [4] > 100 µM | [5] > 100 µM | [6] > 100 µM | [7] > 43.6 µM | [8] > 100 µM | [9] > 100 µM | [10] > 100 µM | [11] > 100 µM | [12] > 100 µM | [13] > 100 µM | [14] > 100 µM | [15] > 100 µM

O=C1C(Cl)C(c2ccc(Cl)cc2)N1n1cnc2ccccc2c1=O (stereo not given)
inactive: [1] > 100 µM | [2] > 100 µM | [3] 87.1 µM | [4] 24.8 µM | [5] 59.7 µM | [6] 40.8 µM | [7] 77.8 µM | [8] 48.6 µM | [9] 33.8 µM | [10] 82.8 µM | [11] > 100 µM | [12] 76 µM | [13] > 100 µM | [14] > 100 µM | [15] 42.3 µM

CNC(=O)NCCCCC(NC(=O)OCc1ccccc1)C(=O)OCc1ccccc1 (stereo not given)
inactive: [1] 22 µM | [2] 16.5 µM | [3] 21.5 µM | [4] 29.9 µM | [5] 18.2 µM | [6] 23.7 µM | [7] > 100 µM | [8] 17.9 µM | [9] > 100 µM | [10] 20.6 µM | [11] 25.4 µM | [12] 16.4 µM | [13] 48.6 µM | [14] 24.2 µM | [15] 23.6 µM

CC/C(=N/O)C(C)C(=O)CCC(=O)Nc1ccc(Cl)cc1 (stereo not given)
inactive: [1] > 100 µM | [2] > 100 µM | [3] 28.2 µM | [4] > 100 µM | [5] > 100 µM | [6] > 100 µM | [7] > 100 µM | [8] > 100 µM | [9] > 100 µM | [10] > 100 µM | [11] > 100 µM | [12] > 100 µM | [13] > 100 µM | [14] > 100 µM | [15] > 100 µM
